# Patent US8080497B2, “Method of controlling the aquatic weed Hydrilla verticillata” (BASF SE, priority 2005, dated 2011)
# System: Hydrilla verticillata
# Assay: Greenhouse container test, static exposure of Hydrilla verticillata in water columns
# Type: in vivo
# Conditions: for Hydrilla Shoot Length: static exposure, 11 WAT, control 30.4 cm
# Procedure: To begin the experiment, PVC cylinders were filled and maintained with a volume of 4000 ml of dechlorinated water that was maintained at room temperature (24° C.). To each cylinder, an established Hydrilla verticillata plant (potted in sand mixture) was transferred into the water column. Hydrilla plants were selected for uniformity and length of shoot growth (approx 15 cm). Plants were allowed to equilibrate in the columns for 24 hrs prior to herbicide treatment. Experimental treatments included an untreated control, and imazamox at 50 and 100 ppb of actual acid equivalent of herbicide. Treatments were applied to water columns by the use of a pipette. Amount of herbicide applied was based on the total volume of the cylinders (4000 ml). After initial herbicide treatment, the water columns were gently stirred to ensure uniform distribution. Treatments were arranged as a completely random design with 3 replications. Each cylinder was considered the experimental unit. Greenhouse conditions were maintained at 24/18° C. (day/night) cycle for the duration of the experiment. Natural day length was supplemented with halogen lighting to provide a 14 h photoperiod. Water level in the cylinders was periodically checked and maintained at the 4000 ml level for the duration of the study. After 11 weeks of exposure, Hydrilla shoot lengths were measured to ascertain herbicide effects.
smiles,measurement,setting,value
"COCc1cnc(C2=NC(C)(C(C)C)C(=O)N2)c(C(=O)O)c1 (racemic) [Imazamox, (RS)-2-(4-isopropyl-4-methyl-5-oxo-2-imidazolin-2-yl)-5-methoxymethylnicotinic acid]",effect on the growth of Hydrilla,after the exposure period (11 weeks),significant effect
same,visual symptomology,"after the exposure period (11 weeks), intensity tended to be rate responsive","reduction in plant vigour, chlorosis and reduction of internodal length"
same,Hydrilla Shoot Length,rate 50 ppb,18.5 cm
same,Hydrilla Shoot Length,rate 100 ppb,12.3 cm
